Entries after “also recorded” stand apart in the source; their conditions may differ. Where a name gives a salt, the structure may show the parent alone. Marks after values point to notes of the source that are not given here. Each block holds one compound with its values, some of them ahead of it.
Experiments:
[1] = target: T1, cloned human μ-opioid receptor (Homo sapiens, UniProt P35372); assay: Inhibition of DAMGO-stimulated [35S]GTPγS binding; assay type: biochemical; settings: for μ, DAMGO Ke (nM): antagonism of DAMGO-stimulated [35S]GTPγS binding, CHO cells, means ± SE, at least three experiments
T1 construct: expressed in transfected cells; host or cells: CHO cells

[2] = target: T2, cloned human δ-opioid receptor (Homo sapiens, UniProt P41143); assay: Inhibition of DPDPE-stimulated [35S]GTPγS binding; assay type: biochemical; settings: antagonism of DPDPE-stimulated [35S]GTPγS binding, CHO cells; means ± SE, at least three experiments
T2 construct: expressed in transfected cells; host or cells: CHO cells

[3] = target: T3, cloned human κ-opioid receptor (Homo sapiens, UniProt P41145); assay: Inhibition of U69,593-stimulated [35S]GTPγS binding; settings: for κ, U69,593 Ke / κ, U69,593 Ke (nM): antagonism of U69,593-stimulated [35S]GTPγS binding, CHO cells, means ± SE, at least three experiments; for δ/κ: κ selectivity relative to δ
[4] = target: T3, cloned human κ-opioid receptor; design: expressed in transfected cells; host or cells: CHO cells; settings: previously reported; cited from earlier work
[5] = target: T1, cloned human μ-opioid receptor; assay: Intrinsic activity in the [35S]GTPγS binding assay; assay type: biochemical; settings: at 10 μM
[6] = target: T2, cloned human δ-opioid receptor; assay: Intrinsic activity in the [35S]GTPγS binding assay; assay type: biochemical; settings: at 10 μM
rodents = settings: forced-swim, elevated plus maze, fear-potentiated startle; cited from earlier work
κ-opioid receptor = settings: in vivo, compared with other κ-opioid antagonists; cited from earlier work
mice = settings: oral; cited from earlier work
rats = settings: oral; cited from earlier work
[7] = target: T3, cloned human κ-opioid receptor; assay: Intrinsic activity in the [35S]GTPγS binding assay; assay type: biochemical; design: expressed in transfected cells; host or cells: CHO cells; settings: at 10 μM

T3 sequence (P41145 whole entry): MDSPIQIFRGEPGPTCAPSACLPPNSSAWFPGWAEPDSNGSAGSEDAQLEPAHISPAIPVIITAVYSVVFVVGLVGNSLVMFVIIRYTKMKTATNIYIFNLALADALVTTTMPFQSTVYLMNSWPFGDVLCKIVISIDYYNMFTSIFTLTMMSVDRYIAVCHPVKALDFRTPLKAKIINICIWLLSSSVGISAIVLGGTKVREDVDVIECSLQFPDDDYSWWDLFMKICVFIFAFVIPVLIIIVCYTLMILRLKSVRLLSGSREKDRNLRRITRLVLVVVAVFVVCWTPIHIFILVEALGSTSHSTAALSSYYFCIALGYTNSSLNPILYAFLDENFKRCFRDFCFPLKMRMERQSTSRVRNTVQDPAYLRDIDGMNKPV
T2 sequence (P41143 whole entry): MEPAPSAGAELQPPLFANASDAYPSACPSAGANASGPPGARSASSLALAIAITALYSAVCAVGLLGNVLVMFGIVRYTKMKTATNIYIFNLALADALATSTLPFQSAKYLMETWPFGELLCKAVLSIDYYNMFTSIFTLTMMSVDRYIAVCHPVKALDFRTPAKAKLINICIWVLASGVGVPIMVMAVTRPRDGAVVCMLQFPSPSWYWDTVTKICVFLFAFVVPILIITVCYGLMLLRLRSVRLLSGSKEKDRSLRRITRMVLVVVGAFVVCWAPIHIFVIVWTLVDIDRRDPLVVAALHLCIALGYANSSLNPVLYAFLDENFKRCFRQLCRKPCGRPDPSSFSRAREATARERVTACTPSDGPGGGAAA
T1 sequence (P35372 whole entry): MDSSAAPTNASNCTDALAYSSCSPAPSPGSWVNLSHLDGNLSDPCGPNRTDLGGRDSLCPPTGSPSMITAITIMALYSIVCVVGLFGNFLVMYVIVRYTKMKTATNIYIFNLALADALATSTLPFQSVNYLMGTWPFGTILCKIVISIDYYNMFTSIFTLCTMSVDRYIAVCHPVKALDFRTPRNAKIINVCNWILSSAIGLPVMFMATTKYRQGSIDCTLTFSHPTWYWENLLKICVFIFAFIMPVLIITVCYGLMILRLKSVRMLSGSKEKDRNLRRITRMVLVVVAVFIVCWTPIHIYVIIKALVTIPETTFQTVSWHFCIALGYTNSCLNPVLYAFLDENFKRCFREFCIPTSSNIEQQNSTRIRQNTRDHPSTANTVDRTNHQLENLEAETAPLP

Structure (SMILES): COc1ccc2c(c1)CNC(C(=O)NC(CN1CCC(C)(c3cccc(O)c3)C(C)C1)C(C)C)C2 (centres unmarked) [Compound 8b]
- μ, DAMGO Ke (nM) [1]: 51.4 ± 15^c nM
- δ, DPDPE Ke (nM) [2]: 118 ± 45^c nM
- κ, U69,593 Ke [3]: 0.06 nM
- κ, U69,593 Ke (nM) [3]: 0.06 ± 0.01^c nM
- decrease in potency at the κ receptor relative to 3 ([3]; compared with 3): 3 fold
- δ/κ ([3]; ratio of Ke values): 1970
- μ/κ ([3]; ratio of Ke values, κ selectivity relative to μ): 857
- Ke value at the κ-opioid receptor [4]: 0.06 nM
- fold less potent than 3 at the κ-opioid receptor [4]: 3 fold
- κ selectivity relative to the δ opioid receptor [4]: 1970 fold
- κ selectivity relative to the μ opioid receptor [4]: 857 fold

Structure (SMILES): CC[C@H](C)[C@@H](CN1CC[C@@](C)(c2cccc(O)c2)[C@@H](C)C1)NC(=O)[C@@]1(C)Cc2ccc(O)cc2CN1 (as salt: hydrochloride) [Compound 8i, (3R)-7-Hydroxy-N-[(1S,2S)-1-{[(3R,4R)-4-(3-hydroxyphenyl)-3,4-dimethylpiperidin-1-yl]methyl}-2-methylbutanyl]-3-methyl-1,2,3,4-tetrahydroisoquinoline-3-carboxamide]
- melting point: > 220 °C (dec.)

Structure (SMILES): CC[C@H](C)[C@@H](CN1CC[C@@](C)(c2cccc(OC)c2)[C@@H](C)C1)NC(=O)[C@H]1Cc2ccc(O)cc2CN1 (as salt: hydrochloride) [Compound 8f, (3R)-7-Hydroxy-N-[(1S,2S)-1-{[(3R,4R)-4-(3-methoxyphenyl)-3,4-dimethylpiperidin-1-yl]methyl}-2-methylbutanyl]-1,2,3,4-tetrahydroisoquinoline-3-carboxamide]
- melting point: > 220 °C (dec.)

Structure (SMILES): COc1cccc([C@]2(C)CCN(C[C@@H](NC(=O)[C@H]3Cc4ccc(O)cc4CN3)C(C)C)C[C@@H]2C)c1 (as salt: hydrochloride) [Compound 8d, (3R)-7-Hydroxy-N-[(1S)-1-{[(3R,4R)-4-(3-methoxyphenyl)-3,4-dimethylpiperidin-1-yl]methyl}-2-methylpropyl]-1,2,3,4-tetrahydroisoquinoline-3-carboxamide]
- melting point: > 220 °C (dec.)

- κ, U69,593 Ke [3]: 0.02 nM
Structure (SMILES): CC(C)[C@@H](CN1CC[C@@](C)(c2cccc(O)c2)[C@@H](C)C1)NC(=O)[C@H]1Cc2ccc(O)cc2CN1 [Compound 3, (3R)-7-hydroxy-N-((1S)-1-{[(3R,4R)-4-(3-hydroxyphenyl)-3,4-dimethyl-1-piperidinyl]methyl}-2-methylpropyl)-1,2,3,4-tetrahydro-3-isoquinolinecarboxamide]
- intrinsic activity at the μ opioid receptor [5]: none of the compounds displayed measurable intrinsic activity
- intrinsic activity at the δ opioid receptor [6]: none of the compounds displayed measurable intrinsic activity
- fear and stress-induced responses (rodents): dose-dependently reduce fear and stress-induced responses
- potency at blocking κ-opioid agonist-induced activity (κ-opioid receptor): more potent
- antagonism of the antinociceptive activity of enadoline (mice): oral activity
- prevention of stress-induced cocaine reinstatement of self-administration (rats): oral activity
- intrinsic activity at the κ opioid receptor [7]: none of the compounds displayed measurable intrinsic activity
- Ke value at the κ-opioid receptor [4]: 0.02 nM

Structure (SMILES): CC[C@H](C)[C@@H](CN1CC[C@@](C)(c2cccc(OC)c2)[C@@H](C)C1)NC(=O)[C@@]1(C)Cc2ccc(O)cc2CN1 (as salt: hydrochloride) [Compound 8n, (3R)-7-Hydroxy-N-[(1S,2S)-1-{[(3R,4R)-4-(3-methoxyphenyl)-3,4-dimethylpiperidin-1-yl]methyl}-2-methylbutanyl)-3-methyl-1,2,3,4-tetrahydroisoquinoline-3-carboxamide]
- melting point: 210 °C (dec.)

Structure (SMILES): CCC(C)C(CN1CCC(C)(c2cccc(O)c2)C(C)C1)NC(=O)C1Cc2ccc(O)cc2CN1 (centres unmarked) [Compound 8a]
- μ, DAMGO Ke (nM) [1]: 3 ± 1^c nM
- potency at μ receptors compared to 3 ([1]; compared with 3): increased potency; also recorded: eight-fold increase in potency
- δ, DPDPE Ke (nM) [2]: 24 ± 4^c nM
- κ, U69,593 Ke [3]: 0.03 nM
- κ, U69,593 Ke (nM) [3]: 0.03 ± 0.02^c nM
- δ/κ ([3]; ratio of Ke values): 800
- Ke value at the κ-opioid receptor [4]: 0.03 nM
- κ selectivity relative to the δ opioid receptor [4]: 800 fold
- κ selectivity relative to the μ opioid receptor [4]: 100 fold

Structure (SMILES): COc1ccc2c(c1)CN(C)[C@@](C)(C(=O)N[C@H](CN1CC[C@@](C)(c3cccc(O)c3)[C@@H](C)C1)C(C)C)C2 (as salt: hydrochloride) [Compound 8o, (3R)-7-Methoxy-N-[(1S)-1-{[(3R,4R)-4-(3-hydroxyphenyl)-3,4-dimethylpiperidin-1-yl]methyl}-2-methylpropyl]-2,3-dimethyl-1,2,3,4-tetrahydroisoquinoline-3-carboxamide]
- melting point: 199 °C (dec.)

Structure (SMILES): Oc1ccc2c3c1O[C@H]1c4[nH]c5c(c4C[C@@]4(O)[C@@H](C2)N(CC2CC2)CC[C@]314)C[C@@]1(O)[C@H]2Cc3ccc(O)c4c3[C@@]1(CCN2CC1CC1)[C@H]5O4 [Compound 1, nor-BNI]
- fear and stress-induced responses (rodents): dose-dependently reduce fear and stress-induced responses
